Among the data in ChEMBL document CHEMBL3808311, “Inhibitors of Renal Outer Medullary Potassium Channel” (ACS Med Chem Lett, 2016) are IC50 values, retold here.

The target in this experiment is T1, ATP-sensitive inward rectifier potassium channel 1 (Homo sapiens, UniProt P48048).
T1 sequence (P48048 whole entry): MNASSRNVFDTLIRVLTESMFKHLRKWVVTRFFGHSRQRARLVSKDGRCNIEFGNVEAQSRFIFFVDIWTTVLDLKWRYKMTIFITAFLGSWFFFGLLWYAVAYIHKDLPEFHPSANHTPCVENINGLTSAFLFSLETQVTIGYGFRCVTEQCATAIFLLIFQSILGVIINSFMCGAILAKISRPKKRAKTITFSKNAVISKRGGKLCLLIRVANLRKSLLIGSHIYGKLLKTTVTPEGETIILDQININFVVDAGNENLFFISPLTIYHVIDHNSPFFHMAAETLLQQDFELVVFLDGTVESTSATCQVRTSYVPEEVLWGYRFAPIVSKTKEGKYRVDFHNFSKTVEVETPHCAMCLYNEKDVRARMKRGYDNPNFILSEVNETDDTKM
Briefly: Inhibition of human Kir1.1 expressed in HEK293 cells after 30 mins by thallium flux assay. Type of experiment: cell-based.

The IC50 is the point on the concentration scale where inhibition reaches its midpoint. Lower therefore signals greater potency. Compound `CC1=C(N2CCC3(CCN(C[C@H](O)c4ccc5c(c4)-c4nnnn4C5)CC3)C2=O)COC1=O` came in with an IC50 of 11 nM.

Consider `CC1=C(N2CCC3(CCN(C[C@@H](O)c4cc5c(cc4Cl)Cn4nnnc4-5)CC3)C2=O)COC1=O`, for which the IC50 came to 9 nM.

`C[C@@H]1CC2(CCN(C[C@@H](O)c3ccc4c(c3)-c3nnnn3C4)CC2)C(=O)N1C1=CC(=O)OC1` showed an IC50 of 7 nM.

In turn, `CC1=C(N2CCC3(CCN(C[C@H](O)c4cc5c(cc4C)Cn4nnnc4-5)CC3)C2=O)COC1=O` showed a concentration for half-maximal inhibition (IC50) of 17 nM.

In turn, `C[C@H]1CC2(CCN(C[C@@H](O)c3ccc4c(c3)-c3nnnn3C4)CC2)C(=O)N1C1=CC(=O)OC1` displayed an IC50 of 14 nM.

For `C[C@@H]1CC2(CCN(C[C@H](O)c3ccc4c(c3)-c3nnnn3C4)CC2)C(=O)N1C1=CC(=O)OC1`, half-maximal inhibition (IC50) was put at 32 nM.

Consider `CC1=C(N2CCC3(CCN(C[C@H](O)c4ccc5c(c4)-c4nnnn4C5)C[C@H]3F)C2=O)COC1=O` (stereo partly specified), for which the IC50 stood at 43 nM.

Compound `CC1=C(N2CCC3(CCN(C[C@H](O)c4cc5c(cc4Cl)Cn4nnnc4-5)CC3)C2=O)COC1=O` displayed an IC50 of 31 nM.

On to `CC1=C(N2CCC3(CCN(C[C@H](O)c4ccc5c(c4)-c4nnnn4C5)C[C@@H]3F)C2=O)COC1=O` (stereo partly specified), for which the IC50 came to 35 nM.

Compound `C[C@H]1CC2(CCN(C[C@H](O)c3ccc4c(c3)-c3nnnn3C4)CC2)C(=O)N1C1=CC(=O)OC1` returned an IC50 of 20 nM.

`CC1=C(N2CCC3(CCN(C[C@@H](O)c4ccc5c(c4)-c4nnnn4C5)CC3)C2=O)COC1=O` had an IC50 of 19 nM.
